Laboratory results as given in patent US9901639B2, “Bone marrow origin progenitor cell or endothelial progenitor cell in combination with DNMT1 gene therapy for vascular repair in metabolic disease” (Temple University—of the Commonwealth System of Higher …, priority 2015, dated 2018).

Assays:
Type in all cases: cell-based, human
hEPCs [1] = assay: hEPC 3H-thymidine incorporation proliferation assay; conditions: L-Hcy 50 to 250 μmol/L, 24 h
From the text: In this study EPCs refer to endothelial colony-forming cells (ECFCs) and their progenitor cell capacities were characterized as described (Wu, Y et al., J Thromb Haemost, 2010; 8:185-193; Wang, H et al., Circulation research, 2004; 94:843 and Stellos, K et al., Eur Heart J., 2009; 30:584-593). Briefly, human blood was collected from healthy volunteer donors. All volunteers had no risk factors of CVD including hypertension, diabetes, smoking, positive family history of premature CVD and hypercholesterolemia, and were all free of wounds, ulcers, retinopathy, recent surgery, inflammatory, malignant diseases, and medications that may influence EPC kinetics. […] After staining, cells were imaged with high-power fields under an inverted fluorescent microscope (Axiovert 200, Carl Zeiss, Thornwood, N.Y.) at 200× magnification and quantified using Image J software. […]
^3H thymidine incorporation assay was used to detect EPC proliferation activity as previously described (Tan, H et al., Cardiovascular research, 2006; 69:253-262). ^3EPCs were seeded onto 24-well plates (5×10^4 cells/well) in EGM2 medium and exposed to L-Hcy (50 to 250 μmol/L) for 24 h after grown to 70-80% confluence. […] Incorporated [methyl-^3H] thymidine was measured in a liquid scintillation counter (PerkinElmer Inc. Waltham, Mass., USA).

hEPCs [2] = assay: hEPC adhesion assay on fibronectin; conditions: L-Hcy 250 μmol/L, 48 h
From the text: (§1) In this study EPCs refer to endothelial colony-forming cells (ECFCs) and their progenitor cell capacities were characterized as described (Wu, Y et al., J Thromb Haemost, 2010; 8:185-193; Wang, H et al., Circulation research, 2004; 94:843 and Stellos, K et al., Eur Heart J., 2009; 30:584-593). Briefly, human blood was collected from healthy volunteer donors. All volunteers had no risk factors of CVD including hypertension, diabetes, smoking, positive family history of premature CVD and hypercholesterolemia, and were all free of wounds, ulcers, retinopathy, recent surgery, inflammatory, malignant diseases, and medications that may influence EPC kinetics. After dilution with HBSS (1:1), blood was overlaid onto Histopaque 1077 (Sigma-Aldrich Co. LLC, St. Louis, Mo.) in the ratio of 1:1 and centrifuged at 740 g for 30 minutes at room temperature. Buffy coat MNCs were collected and centrifuged at 700 g for 10 minutes at room temperature. MNCs were cultured in collagen type I (BD Bioscience, San Diego) (50 m/ml)-coated dishes with EBM2 basal medium (Lonza Inc., Allendale, N.J.) plus standard EGM-2 SingleQuotes (Lonza Inc., Allendale, N.J.) that includes 2% fetal bovine serum (FBS), EGF (20 ng/ml), hydrocortisone (1 μg/ml), bovine brain extract (12 μg/ml), gentamycin (50 μg/ml), amphotericin B (50 ng/ml), and epidermal growth factor (10 ng/ml). Colonies appeared between 5 and 22 days of culture were identified as a well-circumscribed monolayer of cobblestone-appearing cells. […] After staining, cells were imaged with high-power fields under an inverted fluorescent microscope (Axiovert 200, Carl Zeiss, Thornwood, N.Y.) at 200× magnification and quantified using Image J software. […]
EPC adhesion to extracellular matrix (ECM) was evaluated as previously described. […] Adherent cells were photographed with high-power fields under an inverted fluorescent microscope (Axiovert 200, Carl Zeiss, Thornwood, N.Y.) at 200× magnification and quantified by counting the attached cells using image J.

hEPCs [3] = assay: hEPC viability by crystal violet staining; conditions: L-Hcy 48 h
Experimental: Confluent hEPCs were treated with L-Hcy at indicated concentrations for functional studies as described in the section of Methods. FIG. 5A. […] FIG. 5B. Representative images of hEPC adhesion. hEPCs treated with L-Hcy for 48 h were harvested and plated on fibronectin-coated cell culture plates for 1 hour at 37° C. Attached cells were photographed and quantified in high-power fields under an inverted microscope. FIG. 5C. Quantitative analysis of adhesion. FIG. 5D. Representative images of hEPC migration. Confluent hEPCs were incubated with L-Hcy for 48 h, scratched to create a wound and evaluated for migration after 20 h. E. Quantitative analysis of migration. FIG. 5F. Quantitative analysis of hEPC proliferation. 80% confluent hEPCs were treated with L-Hcy for 24 h and labeled with ^3[H]-thymidine for the last 4 h. Incorporated ^3[H]-thymidine was measured in a liquid scintillation counter. FIG. 5G. Quantitative analysis of hEPC viability. Confluent hEPCs were treated with L-Hcy for 48 h and nuclear counts determined by crystal violet staining to determine the viable cells. Data are representative of 3 separate experiments and are shown as mean±SD. *P<0.05 versus control. hEPCs; human endothelial progenitor cells; Hcy, homocysteine.

hEPCs [4] = assay: hEPC scratch wound migration assay
From the text: as §1, with “cells. ECFCs with endothelial lineage markers expression, robust proliferative potential, colony-forming, and vessel-forming activity in vitro are defined as EPCs as described (Wang, H et al., Circulation research, 2004; 94:843 and Stellos, K et al., Eur Heart J., 2009; 30:584-593). Passage 4 to 6 EPCs were used for experiments. For a brief characterization, endothelial phagocytosis function was confirmed by incubating EPC in 4-well chamber slide with 1, 1-dioctadecyl-3, 3, 3, 3-tetramethylindocarbocyanine (DiI)-labeled acetylated low-density lipoprotein (acLDL) (Biomedical Technologies, Inc., Stoughton, Mass.) (5 m/ml) at 37° C. for 1 h, washed 3 times for 15 min in PBS, and then fixed with 2% paraformaldehyde for 10 min.” for “cells.”
EPC migration was evaluated using a scratch wound assay as previously described (Tan, H et al., Cardiovascular research, 2006; 69:253-262). […]

N[C@@H](CCS)C(=O)O [L-Hcy, homocysteine]
DNA synthesis ([3H] thymidine uptake) (hEPCs [1]): dose sensitively inhibited | EPC adhesion to fibronectin compared with the control (hEPCs [2]): 57% | Hcy-suppressed adhesion in hEPC (without 12G10) (hEPCs [2]; adhesion rescue experiment): 62% | EPC adhesion to fibronectin (hEPCs [2]; control 0.13±0.006): 0.06±0.008 OD630 nm | EPC viability (hEPCs [3]): no effect | hEPC migration (value in brackets) (hEPCs [4]; Hcy 100 μmol/L): 54.6±2.8 | hEPC migration reduced to (hEPCs [4]; Hcy 100 μmol/L): 68% | hEPC migration (value in brackets) (hEPCs [4]; Hcy 250 μmol/L): 49.7±1.1 | hEPC migration reduced to (hEPCs [4]; Hcy 250 μmol/L): 62%
